Test results: patent US20230355605A1, “DRUG FOR ENHANCING FIBRINOLYTIC SYSTEM, AND USE THEREFOR” (priority 2020, published 2023)

What was measured:
[1] = assay type: physicochemical
Experimental: The present compound (yellowish white powder) was prepared in the following shipping packaging form and then subjected to an accelerated stability study (40° C., 75% RH, 6 months).
Inner package: A double polyethylene bag (100 × 200 mm) was filled with the present compound and sealed with a zip tie. Outer package: The double polyethylene bag filled with the present compound was placed in a fiber drum, and the fiber drum was sealed.
The present compound was stored in the above packaging form under the conditions of 40° C.12° C. and 75% RH15% RH for 6 months. At points after 1 month, 3 months, and 6 months, appearance observation, an identification test (ultraviolet spectrum, infrared absorption spectrum, flame reaction), water content analysis (water absorption), analysis of the content of the present compound, and a purity test (impurity profile) were performed to evaluate the stability of the present compound.

human-derived PAI-1 = human-derived PAI-1 (Homo sapiens, UniProt P05121); test: Human plasma clot fibrinolysis test (PAI-1 inhibitory effect); assay type: biochemical; conditions: human plasma clot with t-PA and human-derived PAI-1
human-derived PAI-1, sequence (P05121 24-402): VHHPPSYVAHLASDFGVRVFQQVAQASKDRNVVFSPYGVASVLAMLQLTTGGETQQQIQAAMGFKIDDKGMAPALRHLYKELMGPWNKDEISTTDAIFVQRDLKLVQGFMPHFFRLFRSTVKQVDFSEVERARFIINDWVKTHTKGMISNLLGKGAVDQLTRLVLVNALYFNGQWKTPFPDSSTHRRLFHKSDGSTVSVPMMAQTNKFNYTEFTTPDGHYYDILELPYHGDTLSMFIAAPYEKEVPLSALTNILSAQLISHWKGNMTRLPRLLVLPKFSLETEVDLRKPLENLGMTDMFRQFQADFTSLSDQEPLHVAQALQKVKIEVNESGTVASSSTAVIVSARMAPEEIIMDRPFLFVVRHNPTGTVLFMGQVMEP
Experimental: A human plasma clot fibrinolysis test was performed to evaluate the PAI-1 inhibitory effect of the present compound.
Specifically, human-derived PAI-1 and the present compound were added to a reaction mixture containing t-PA, which dissolves blood clots caused by addition of thrombin to normal human pooled plasma, and the inhibition of the effect of t-PA by PAI-1 (PAI-1 effect) and the removal of the PAI-1 effect by the present compound (PAI-1 inhibition) (fibrinolysis enhancement) were evaluated.

[2] = tested on: cynomolgus monkey model of saphenous arterial thrombus; test: Cynomolgus monkey model of saphenous arterial thrombus (PIT model); assay type: in vivo
Experimental: The thrombus formation inhibitory effect of the present compound was evaluated using a cynomolgus monkey model of saphenous arterial thrombus (PIT model) .
Before the procedure, the present compound suspended in a 0.5% CMC-Na aqueous solution was orally administered to test groups of cynomolgus monkeys at dosages of 0.1, 0.3, 1, and 3 mg/kg. […] A light irradiation probe was placed on a saphenous artery of each cynomolgus monkey to cause thrombus formation by applying green light of 540 nm for 20 minutes at the time of intravenously administering rose bengal (20 mg/kg). A decrease in blood flow due to this thrombus formation was measured with a pulse Doppler blood flowmeter, and the thrombus formation inhibitory effect of the present compound was evaluated by measuring the occlusion time on the first day and the cumulative occlusion time.

hERG current = biological target: T1, hERG current (Homo sapiens, UniProt Q12809); test: Effect on hERG current (whole-cell patch clamp); assay type: cell-based; conditions: 0.1, 1, 10 µM; up to 10 µM; 10 minutes after application; hERG-expressing HEK293 cells
T1 construct: expressed in transfected cells; host or cells: HEK293
T1 sequence (Q12809 whole entry): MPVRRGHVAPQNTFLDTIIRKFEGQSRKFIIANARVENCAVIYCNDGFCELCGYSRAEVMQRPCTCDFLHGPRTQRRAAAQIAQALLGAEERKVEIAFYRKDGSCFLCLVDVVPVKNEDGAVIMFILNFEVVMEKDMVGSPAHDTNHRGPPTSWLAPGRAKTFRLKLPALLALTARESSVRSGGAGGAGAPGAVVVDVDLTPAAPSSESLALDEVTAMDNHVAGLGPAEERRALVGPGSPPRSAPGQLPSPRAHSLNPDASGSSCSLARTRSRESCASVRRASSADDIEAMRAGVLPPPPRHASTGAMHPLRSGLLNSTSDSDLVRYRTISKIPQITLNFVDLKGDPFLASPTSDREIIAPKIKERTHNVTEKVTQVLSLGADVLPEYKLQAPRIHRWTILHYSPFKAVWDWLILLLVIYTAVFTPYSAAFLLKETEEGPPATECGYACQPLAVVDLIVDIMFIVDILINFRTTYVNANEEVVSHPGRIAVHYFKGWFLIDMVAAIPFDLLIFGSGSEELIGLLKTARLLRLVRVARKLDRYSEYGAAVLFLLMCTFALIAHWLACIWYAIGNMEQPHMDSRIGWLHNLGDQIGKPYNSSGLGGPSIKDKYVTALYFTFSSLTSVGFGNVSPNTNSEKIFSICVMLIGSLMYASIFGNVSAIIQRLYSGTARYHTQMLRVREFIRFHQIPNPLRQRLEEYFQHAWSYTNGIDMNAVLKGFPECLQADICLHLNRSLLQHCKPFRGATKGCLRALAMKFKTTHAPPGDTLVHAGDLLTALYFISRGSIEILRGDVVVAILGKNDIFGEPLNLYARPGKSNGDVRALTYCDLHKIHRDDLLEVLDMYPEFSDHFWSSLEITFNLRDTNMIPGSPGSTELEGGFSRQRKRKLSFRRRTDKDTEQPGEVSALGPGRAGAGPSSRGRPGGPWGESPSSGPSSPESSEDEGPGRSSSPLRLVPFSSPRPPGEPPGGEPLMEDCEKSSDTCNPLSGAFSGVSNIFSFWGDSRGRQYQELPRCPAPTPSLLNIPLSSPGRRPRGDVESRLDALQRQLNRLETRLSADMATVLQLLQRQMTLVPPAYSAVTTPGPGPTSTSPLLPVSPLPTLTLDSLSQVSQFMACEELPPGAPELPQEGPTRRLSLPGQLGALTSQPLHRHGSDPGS
Experimental: The effect of the present compound on hERG current was examined by a whole-cell patch clamp method using HEK293 cells transfected with the human ether-a-go-go-related gene (hERG). This study was performed as part of a safety pharmacology core battery study to predict the risk of a drug-induced proarrhythmic effect, in particular, prolongation of QT interval on an electrocardiogram, in an in vitro study. The concentration of the present compound was set to 0.1, 1, and 10 µM, and the tail peak current suppression rate (%) 10 minutes after application relative to that before application was used as an index of the effect on hERG current. As a vehicle control, 0.1 v/v% DMSO was used, and as a positive control, 0.1 µmol/L of E-4031 was used.

[3] = tested on: patients with COVID-19 pneumonia (mild to moderate); test: Effectiveness study for COVID-19 pneumonia (exploratory early phase II study); assay type: in vivo, human
Description: The effect of the present compound to prevent the aggravation of COVID-19 pneumonia and its safety were explored.
Occurrence of transition to oxygen supply treatment under mechanical ventilation after the oral administration of the present compound (occurrence of deterioration of oxygenation)
• (a) Survival for 28 days from the start of administration of the present compound • (b) Duration of hospitalization after the start of administration of the present compound • (c) Number of days required for oxygen administration after the start of administration of the present compound (d) Changes in the proportion of lesions in the lung field on chest CT images before and after the administration of the present compound
Occurrence of adverse events after the start of administration of the present compound until the end of observation

[4] = 120 to 180 mg/day oral, 14 days
[5] = after the start of administration, excluding undescribed and discontinued cases
[6] = start of administration to end of observation, 26 patients

In the case of `O=C(Nc1ccc(Cl)cc1C(=O)[O-])c1cccc(-c2cccc3cccnc23)c1.[Na+]` [present compound, sodium 5-chloro-2-({ [3-(quinolin-8-yl)phenyl]carbonyl}amino)benzoate], the “period stable in the accelerated stability study” value ([1]; 6 months) is reported as “at least 6 months”, the “change from the state before storage (appearance, identification, water content, content, purity)” value ([1]; 40° C., 75% RH, after 1, 3 and 6 months, shipping packaging) is reported as “no change” and the “concentration with PAI-1 inhibitory effect (fibrinolysis enhancement effect)” value (human-derived PAI-1) is reported as ≥ 10 µM. The “initial occlusion time vs vehicle group” value ([2]; 0.3 mg/kg oral, P<0.05) was “Significant prolongation”, the “cumulative occlusion time vs vehicle group” value ([2]; 0.1, 0.3, 1.0, 3.0 mg/kg oral, P<0.01, dose-dependent) was “significant reductions” and the minimum effective dosage ([2]; oral administration to monkeys) was 0.1 mg/kg. The “suppressive effect on hERG current (tail peak current suppression rate)” value (hERG current) was “no suppressive effect”, the “deterioration of oxygenation requiring mechanical ventilation” value [3, 4] was “no cases” and the “number of days required for oxygen administration after the start of administration” value [3, 4] was “gradually decreased”. The “survival for 28 days from the start of administration” value [3, 4] was “all cases survived”, the “adverse events in patients concomitantly treated with Remdesivir, Avigan, inhaled steroid or antiplatelet agent” value ([3]; Remdesivir 8, Avigan 5, inhaled steroid 22, antiplatelet agent 5 cases) was “no adverse events requiring treatment” and the “Number of cases with duration of hospitalization 8 to 12 days” value [3, 5] was 5. The “Number of cases with duration of hospitalization 13 to 17 days” value [3, 5] was 12, the “Number of cases with duration of hospitalization 18 to 22 days” value [3, 5] was 4 and the “number of cases, oxygen dosage 0 L/day” value ([3]; day 1) was 3. The “number of cases, oxygen dosage 2 or less L/day” value ([3]; day 1) was 12, the “number of cases, oxygen dosage 5 or more L/day” value ([3]; day 1) was 3 and the “number of cases, oxygen dosage More than 2 less than 5 L/day” value ([3]; day 1) was 5. The “number of cases, oxygen dosage 0 L/day” value ([3]; day 2) was 3, the “number of cases, oxygen dosage 2 or less L/day” value ([3]; day 2) was 12 and the “number of cases, oxygen dosage 5 or more L/day” value ([3]; day 2) was 2. For the same compound, the “number of cases, oxygen dosage More than 2 less than 5 L/day” value ([3]; day 2) was 6, the “number of cases, oxygen dosage 0 L/day” value ([3]; day 3) was 4 and the “number of cases, oxygen dosage 2 or less L/day” value ([3]; day 3) was 13. The “number of cases, oxygen dosage 5 or more L/day” value ([3]; day 3) was 0, the “number of cases, oxygen dosage More than 2 less than 5 L/day” value ([3]; day 3) was 6 and the “number of cases, oxygen dosage 0 L/day” value ([3]; day 4) was 7. For the same compound, the “number of cases, oxygen dosage 2 or less L/day” value ([3]; day 4) was 11, the “number of cases, oxygen dosage 5 or more L/day” value ([3]; day 4) was 0 and the “number of cases, oxygen dosage More than 2 less than 5 L/day” value ([3]; day 4) was 5. For the same compound, the “number of cases, oxygen dosage 0 L/day” value ([3]; day 5) was 7, the “number of cases, oxygen dosage 2 or less L/day” value ([3]; day 5) was 12 and the “number of cases, oxygen dosage 5 or more L/day” value ([3]; day 5) was 0. For the same compound, the “number of cases, oxygen dosage More than 2 less than 5 L/day” value ([3]; day 5) was 4, the “number of cases, oxygen dosage 0 L/day” value ([3]; day 6) was 10 and the “number of cases, oxygen dosage 2 or less L/day” value ([3]; day 6) was 9. For the same compound, the “number of cases, oxygen dosage 5 or more L/day” value ([3]; day 6) was 0, the “number of cases, oxygen dosage More than 2 less than 5 L/day” value ([3]; day 6) was 4 and the “number of cases, oxygen dosage 0 L/day” value ([3]; day 7) was 10. For the same compound, the “number of cases, oxygen dosage 2 or less L/day” value ([3]; day 7) was 9, the “number of cases, oxygen dosage 5 or more L/day” value ([3]; day 7) was 0 and the “number of cases, oxygen dosage More than 2 less than 5 L/day” value ([3]; day 7) was 4. The “number of cases, oxygen dosage 0 L/day” value ([3]; day 8) was 12, the “number of cases, oxygen dosage 2 or less L/day” value ([3]; day 8) was 10 and the “number of cases, oxygen dosage 5 or more L/day” value ([3]; day 8) was 0. The “number of cases, oxygen dosage More than 2 less than 5 L/day” value ([3]; day 8) was 1, the “number of cases, oxygen dosage 0 L/day” value ([3]; day 9) was 13 and the “number of cases, oxygen dosage 2 or less L/day” value ([3]; day 9) was 9. For the same compound, the “number of cases, oxygen dosage 5 or more L/day” value ([3]; day 9) was 0, the “number of cases, oxygen dosage More than 2 less than 5 L/day” value ([3]; day 9) was 1 and the “number of cases, oxygen dosage 0 L/day” value ([3]; day 10) was 17. For the same compound, the “number of cases, oxygen dosage 2 or less L/day” value ([3]; day 10) was 6, the “number of cases, oxygen dosage 5 or more L/day” value ([3]; day 10) was 0 and the “number of cases, oxygen dosage More than 2 less than 5 L/day” value ([3]; day 10) was 0. For the same compound, the “number of cases, oxygen dosage 0 L/day” value ([3]; day 11) was 18, the “number of cases, oxygen dosage 2 or less L/day” value ([3]; day 11) was 5 and the “number of cases, oxygen dosage 5 or more L/day” value ([3]; day 11) was 0. For the same compound, the “number of cases, oxygen dosage More than 2 less than 5 L/day” value ([3]; day 11) was 0, the “number of cases, oxygen dosage 0 L/day” value ([3]; day 12) was 20 and the “number of cases, oxygen dosage 2 or less L/day” value ([3]; day 12) was 3. The “number of cases, oxygen dosage 5 or more L/day” value ([3]; day 12) was 0, the “number of cases, oxygen dosage More than 2 less than 5 L/day” value ([3]; day 12) was 0 and the “number of cases, oxygen dosage 0 L/day” value ([3]; day 13) was 21. The “number of cases, oxygen dosage 2 or less L/day” value ([3]; day 13) was 2, the “number of cases, oxygen dosage 5 or more L/day” value ([3]; day 13) was 0 and the “number of cases, oxygen dosage More than 2 less than 5 L/day” value ([3]; day 13) was 0. For the same compound, the “number of cases, oxygen dosage 0 L/day” value ([3]; day 14) was 22, the “number of cases, oxygen dosage 2 or less L/day” value ([3]; day 14) was 1 and the “number of cases, oxygen dosage 5 or more L/day” value ([3]; day 14) was 0. For the same compound, the “number of cases, oxygen dosage More than 2 less than 5 L/day” value ([3]; day 14) was 0, the “number of cases with reduced proportion of lesions in the lung field on chest CT images” value ([3]; out of 18 cases, administration for 14 days) was 13 cases and the “adverse events related to the present compound and requiring treatment” value ([3]; start of administration to end of observation) was “no adverse events that were related to the present compound and that required treatment”. For the same compound, the “number of adverse events” value [3, 6] was 33 and the “number of patients with adverse events” value [3, 6] was 17 patients.
